Laboratory results: ChEMBL document CHEMBL5614418, “Discovery of novel dihydropyrrolidone-thiadiazole compound crosstalk between the YycG/F two-component regulatory pathway and cell membrane homeostasis to combat methicillin-resistant Staphylococcus aureus” (Eur J Med Chem, 2024)
Values after ≈ are worked out from the molar mass of the structure shown. Active and inactive are the calls of the source. No cut-off for these calls is given here.

What was measured:
Staphylococcus aureus [1] = assay: Antibacterial activity against methicillin sensitive Staphylococcus aureus SA113 assessed as reduction in membrane fluidity at 1 to 4 times MIC incubated for 30 mins by fluorescence based assay; format: functional, organism-based
[2] = tested on: Staphylococcus epidermidis; assay: Synergistic bactericidal activity against Staphylococcus epidermidis SE1457 assessed as planktonic cells killing by measuring log reduction in bacterial count at 8 times MIC measured after 24 hrs in presence of daptomycin; format: functional
Staphylococcus aureus [3] = assay: Antibacterial activity against methicillin resistant Staphylococcus aureus USA300 infected in BALB/c mouse pneumonia model assessed as increase in mouse survival rate at 20 mg/kg, ip administered every 12 hrs for 3 times and measured after 48 hrs; format: functional, organism-based
[4] = tested on: Staphylococcus epidermidis; assay: Antibacterial activity against Staphylococcus epidermidis SE1457 by broth microdilution method; format: functional
Staphylococcus aureus [5] = assay: Antibacterial activity against methicillin sensitive Staphylococcus aureus SA113 by broth microdilution method; format: functional
Enterococcus faecium [6] = assay: Antibacterial activity against Enterococcus faecium EFM64 by broth microdilution method; format: functional
Staphylococcus aureus [7] = assay: Bactericidal activity against Staphylococcus aureus SA113; format: functional
Enterococcus faecium [8] = assay: Bactericidal activity against Enterococcus faecium EFM64; format: functional
Pseudomonas aeruginosa = assay: Antibacterial activity against Pseudomonas aeruginosa; format: functional, organism-based
Escherichia coli = assay: Antibacterial activity against Escherichia coli; format: functional, organism-based
[9] = tested on: Staphylococcus epidermidis; assay: Inhibition of bacterial growth in Staphylococcus epidermidis SE1457 at MIC concentration measured upto 16 hrs; format: functional
Staphylococcus aureus [10] = assay: Inhibition of bacterial growth in methicillin sensitive Staphylococcus aureus SA113 at MIC concentration measured upto 16 hrs; format: functional
Staphylococcus aureus [11] = assay: Inhibition of bacterial growth in methicillin resistant Staphylococcus aureus USA300 at MIC concentration measured upto 16 hrs; format: functional
[12] = tested on: Staphylococcus epidermidis; assay: Inhibition of bacterial growth in Staphylococcus epidermidis SE1457 at 1/2 MIC concentration measured upto 16 hrs; format: functional, organism-based
[13] = tested on: Staphylococcus epidermidis; assay: Synergistic antibacterial activity against Staphylococcus epidermidis SE1457 in presence of vancomycin; format: functional, organism-based
Staphylococcus aureus [14] = assay: Synergistic antibacterial activity against methicillin resistant Staphylococcus aureus USA300 assessed as fold increase in MIC in presence of daptomycin; format: functional
[15] = tested on: Staphylococcus epidermidis; assay: Bactericidal activity against Staphylococcus epidermidis SE1457 assessed as planktonic cells killing by measuring log reduction in bacterial count at 2 to 8 times MIC measured after 24 hrs; format: functional
Staphylococcus aureus [16] = assay: Bactericidal activity against methicillin resistant Staphylococcus aureus USA300 assessed as planktonic cells killing by measuring log reduction in bacterial count at 2 to 8 times MIC measured after 24 hrs; format: functional
Staphylococcus aureus [17] = assay: Synergistic bactericidal activity against Staphylococcus aureus USA300 assessed as planktonic cells killing by measuring log reduction in bacterial count at 8 times MIC measured after 24 hrs in presence of daptomycin; format: functional
[18] = tested on: Staphylococcus epidermidis; assay: Synergistic bactericidal activity against Staphylococcus epidermidis SE1457 assessed as persister cells killing by measuring log reduction in bacterial count at 8 times MIC measured after 72 hrs in presence of daptomycin; format: functional
Staphylococcus aureus [19] = assay: Synergistic bactericidal activity against Staphylococcus aureus USA300 assessed as persister cells killing by measuring log reduction in bacterial count at 8 times MIC measured after 72 hrs in presence of daptomycin; format: functional
[20] = tested on: Staphylococcus epidermidis; assay: Induction of matured biofilm eradication in Staphylococcus epidermidis SE1457 assessed as log reduction in bacterial count in biofilm at 8 times MIC incubated for 48 hrs by agar plate method; format: functional
[21] = tested on: Staphylococcus epidermidis; assay: Induction of matured biofilm eradication in Staphylococcus epidermidis SE1457 assessed as reduction in bacterial survival in biofilm at 8 times MIC incubated for 48 hrs in presence of daptomycin by SYTO 9 staining based confocal fluorescence microscopic analysis; format: functional
Staphylococcus aureus [22] = assay: Induction of matured biofilm eradication in methicillin resistant Staphylococcus aureus YUSA145 assessed as reduction in bacterial survival in biofilm at 8 times MIC incubated for 48 hrs in presence of daptomycin by SYTO 9 staining based confocal fluorescence microscopic analysis; format: functional
Staphylococcus aureus [23] = assay: Induction of matured biofilm eradication in methicillin resistant Staphylococcus aureus YUSA145 assessed as log reduction in bacterial count in biofilm at 8 MIC incubated for 48 hrs in presence of daptomycin by agar plate method; format: functional
Staphylococcus aureus [24] = assay: Downregulation of arcC2 expression level in methicillin sensitive Staphylococcus aureus SA113 at 1/2 MIC incubated for 2 hrs by MS/MS analysis; format: functional
Staphylococcus aureus [25] = assay: Downregulation of pflA expression level in methicillin sensitive Staphylococcus aureus SA113 at 1/2 MIC incubated for 2 hrs by MS/MS analysis; format: functional
Staphylococcus aureus [26] = assay: Downregulation of acetyl-CoA level in methicillin sensitive Staphylococcus aureus SA113 at 1/2 MIC incubated for 30 mins; format: functional
Staphylococcus aureus [27] = assay: Downregulation of fructosre-1, 6-diphosphate level in methicillin sensitive Staphylococcus aureus SA113 at 1/2 MIC incubated for 30 mins; format: functional
Staphylococcus aureus [28] = assay: Antibacterial activity against methicillin sensitive Staphylococcus aureus SA113 assessed as fold increase in MIC in presence of peptidoglycan by chequerboard microdilution assay; format: functional
Staphylococcus aureus [29] = assay: Antibacterial activity against methicillin sensitive Staphylococcus aureus SA113 in presence of palmitic acid; format: functional, organism-based
Staphylococcus aureus [30] = assay: Antibacterial activity against methicillin sensitive Staphylococcus aureus SA113 in presence of oleic acid; format: functional, organism-based
Staphylococcus aureus [31] = assay: Antibacterial activity against methicillin sensitive Staphylococcus aureus SA113 assessed as increase in membrane permeability at 1 to 4 times MIC incubated for 30 mins by PI staining based fluorescence assay; format: functional, organism-based
Staphylococcus aureus [32] = assay: Induction of resistance development in methicillin sensitive Staphylococcus aureus SA113 assessed as fold increase in MIC at 1/2 MIC incubated for 16 hrs after 20 serial passages; format: functional
[33] = tested on: Staphylococcus epidermidis; assay: Induction of resistance development in Staphylococcus epidermidis SE1457 assessed as fold increase in MIC at 1/2 MIC incubated for 16 hrs after 20 serial passages; format: functional
[34] = tested on: Staphylococcus epidermidis; assay: Antibacterial activity against methicillin resistant Staphylococcus epidermidis SE1457 infected in BALB/c mouse wound model assessed as log reduction in wound bacterial load at 20 mg/kg, ip administered every 12 hrs for 3 times and measured after 48 hrs; format: functional
Staphylococcus aureus [35] = assay: Antibacterial activity against methicillin resistant Staphylococcus aureus USA300 infected in BALB/c mouse wound model assessed as log reduction in wound bacterial load at 20 mg/kg, ip administered every 12 hrs for 3 times and measured after 48 hrs in presence of DAP; format: functional
[36] = Toxicity in BALB/c mouse assessed as change in ALT level at 50 mg/kg, ip measured after 1 to 3 days; format: organism-based; details: in vivo, time 1-3 day
[37] = Toxicity in BALB/c mouse assessed as change in BUN level at 50 mg/kg, ip measured after 1 to 3 days; format: organism-based; details: in vivo, time 1-3 day
[38] = Toxicity in BALB/c mouse assessed as change in CREA level at 50 mg/kg, ip measured after 1 to 3 days; format: organism-based; details: in vivo, time 1-3 day
[39] = Toxicity in BALB/c mouse assessed as change in Na+ level at 50 mg/kg, ip measured after 1 to 3 days; format: organism-based; details: in vivo, time 1-3 day
Staphylococcus aureus [40] = assay: Antibacterial activity against methicillin sensitive Staphylococcus aureus CHS101; format: functional
Staphylococcus aureus [41] = assay: Antibacterial activity against methicillin resistant Staphylococcus aureus YUSA151; format: functional

Which Activity (Staphylococcus aureus [1]) does the source give for `O=C(C1=C(O)C(=O)N(c2nnc(SCc3ccccc3Cl)s2)C1c1ccccc1O)c1cc2ccccc2o1` (stereo unspecified) here?
Its Activity is “Active”.

What about the “log(activity)” value [2] of the same molecule?
The value was 4.5.

What about the Activity (Staphylococcus aureus [3]) of the same molecule?
Its Activity is “Active”.

And the MIC50 [4]?
Its MIC50 is at least 50 µM.

What about the MIC90 [4] of the same molecule?
The MIC90 was at least 50 µM.

And the MIC50 (Staphylococcus aureus [5])?
Its MIC50 is at least 50 µM.

What about the MIC90 (Staphylococcus aureus [5]) of the same molecule?
The MIC90 was at least 50 µM.

And the MIC50 (Enterococcus faecium [6])?
The MIC50 was at least 50 µM.

What about the MIC90 (Enterococcus faecium [6]) of the same molecule?
Its MIC90 is at least 50 µM.

What about the MBC (Staphylococcus aureus [7]) of the same molecule?
Its MBC is 25 µM (≈ 14.4 µg/mL).

And the MBC (Enterococcus faecium [8])?
The MBC was 100 µM (≈ 57.6 µg/mL).

What about the Activity (Pseudomonas aeruginosa) of the same molecule?
Its Activity is “Active”.

And the Activity (Escherichia coli)?
The Activity was “Active”.

And the “inhibition (INH)” value [9]?
Its value is 100%.

And the “inhibition (INH)” value (Staphylococcus aureus [10])?
The value was 100%.

What about the “inhibition (INH)” value (Staphylococcus aureus [11]) of the same molecule?
Its value is 100%.

What about the “growth inhibition (GI)” value [12] of the same molecule?
Its value is “Active”.

And the Activity [13]?
Its Activity is “inactive”.

And the “fold change (FC)” value (Staphylococcus aureus [14])?
Its value is 2.

And the “log(activity)” value [15]?
Its value is 2.7.

What about the “log(activity)” value (Staphylococcus aureus [16]) of the same molecule?
Its value is 2.7.

What about the “log(activity)” value (Staphylococcus aureus [17]) of the same molecule?
The value was 4.5.

What about the “log(activity)” value [18] of the same molecule?
The value was 3.

And the “log(activity)” value (Staphylococcus aureus [19])?
Its value is 3.

What about the “log(activity)” value [20] of the same molecule?
The value was 1.

And the Activity [21]?
The Activity was over 70%.

And the Activity (Staphylococcus aureus [22])?
The Activity was over 70%.

What about the “log(activity)” value (Staphylococcus aureus [23]) of the same molecule?
The value was 3.

And the Activity (Staphylococcus aureus [24])?
Its Activity is “Active”.

What about the Activity (Staphylococcus aureus [25]) of the same molecule?
The Activity was “Active”.

What about the Activity (Staphylococcus aureus [26]) of the same molecule?
The Activity was “Active”.

What about the Activity (Staphylococcus aureus [27]) of the same molecule?
Its Activity is “Active”.

And the “fold change (FC)” value (Staphylococcus aureus [28])?
The value was 16.

What about the Activity (Staphylococcus aureus [29]) of the same molecule?
The Activity was “inactive”.

What about the Activity (Staphylococcus aureus [30]) of the same molecule?
Its Activity is “inactive”.

And the Activity (Staphylococcus aureus [31])?
The Activity was “Active”.

What about the Activity (Staphylococcus aureus [32]) of the same molecule?
Its Activity is “inactive”.

What about the Activity [33] of the same molecule?
Its Activity is “inactive”.

And the “log(activity)” value [34]?
Its value is 1.

And the “log(activity)” value (Staphylococcus aureus [35])?
The value was 3.5.

And the Activity [36]?
The Activity was “Non-Toxic”.

What about the Activity [37] of the same molecule?
The Activity was “Non-Toxic”.

What about the Activity [38] of the same molecule?
Its Activity is “Non-Toxic”.

And the Activity [39]?
Its Activity is “Non-Toxic”.

What about the MIC (Staphylococcus aureus [40]) of the same molecule?
Its MIC is 12.5 µM (≈ 7.2 µg/mL).

And the MIC (Staphylococcus aureus [41])?
The MIC was 12.5 µM (≈ 7.2 µg/mL).
